According to EP0006772A1, “Thieno and furopyridone derivatives, process for their preparation and medicinal preparations containing them” (OMNIUM FINANCIER AQUITAINE POUR L'HYGIENE ET LA SANTE - …, priority 1978, dated 1980):
Where two headings read alike, the source gives them in different places.

Key:
[1] = tested on: agrégation plaquettaire à l'A.D.P.; test: ADP-induced platelet aggregation in plasma of orally treated rats (ex vivo); parameters: species or system rats de souche Wistar; conditions: Rattus norvegicus, 100 mg/kg oral, 3 hours after treatment, versus control, 10 µM A.D.P., read-out: Pourcentage d'inhibition A.D.P.
Experimental: (§1) Chez des rats de souche Wistar, on effectue un prélèvement sanguin dans la veine jugulaire. A partir de ce sang citraté et après centrifugation, on reconstitue un plasma contenant 600 000 ± 20 000 plaquettes par mm^3, qui servira dans toutes les mesures d'agrégation.
(§2) On place 0,4 ml de plasma dans un tube siliconé pourvu d'une barre aimantée elle-même siliconée. Le tube est introduit dans un agrégomètre couplé à un appareil permettant d'enregistrer les variations de densité optique. Lorsque la transmission de la lumière a atteint une valeur stable, on introduit dans le tube 0,5 ml d'une solution contenant 10 µM d'A.D.P. (Adénosine-Di Phosphate).
(§3) L'agrégation des plaquettes provoque alors une augmentation de la transmission lumineuse suivie d'une diminution consécutive à la phase de désagrégation.
(§4) La variation maximale de densité optique ainsi déterminée caractérise l'intensité de l'agrégation.
(§5) Différents lots de 20 rats sont uiilisés, chaque lot recevant un dérivé à tester par la vcie orale, à la dose de 100 mg/kg de poids corporel. Les résultats obtenus au cours de ces 2 essais sont rapportés dans le Tableau I suivant qui indique le pourcentage d'inhibition de l'agrégation plaquettaire obtenu, par rapport au témoin, 3 heures après le traitement par le médicament de l'invention, dans le test de l'A.D.P. et au collagène.

[2] = tested on: agrégation plaquettaire au collagène; test: Collagen-induced platelet aggregation in plasma of orally treated rats (ex vivo); parameters: species or system rats de souche Wistar; conditions: Rattus norvegicus, 100 mg/kg oral, 3 hours after treatment, versus control, collagen (bovine tendon extract), read-out: Pourcentage d'inhibition Collagène
Experimental: as §1, §2, §3, §4
La solution d'A.D.P. est remplacée par une solution de collagène (extrait de tendons bovins).
as §5

[3] = tested on: oedème localisé provoqué par la carragénine; test: Carrageenan-induced localised paw oedema; type: in vivo; conditions: rat, 100 mg/kg oral (1 h before, at injection, 1 h and 2.5 h after)
Experimental: Une solution de carragénine (0,1 ml) à 1 % est injectée dans les fléchisseurs métatarsiens de la patte postérieure droite du rat au temps O. Les animaux du lot traité reçoivent en outre, par la voie orale, 100 mg par kg du dérivé à tester respectivement 1 heure avant, en même temps que l'injection de l'agent phlogogène, puis 1 heure et 2 heures et demi après. Les mesures qui sont effectuées à l'aide du micromètre de ROCH aux temps 0, 1 heure, 2 heures, 3 heures et 5 heures après l'administration de la carragénine permettent de déterminer, en fonction du temps, le pourcentage d'activité anti-inflammatoire par comparaison avec le lot témoin.

[4] = tested on: oedème généralisé à l'ovalbumine; test: Ovalbumin-induced generalised oedema; type: in vivo; conditions: po, rat, 100 mg/kg per os 1 h before and together with ovalbumin
Experimental: Une injection intrapéritonéale simultanée de 1 ml d'ovalbumine et de 0,5 ml d'une solution aqueuse de bleu Evans à 1 % est effectuée sur le rat. D'autre part, on administre per os aux animaux du lot traité 100 mg/kg du dérivé à tester 1 heure avant et en même temps que l'ovalbumine. L'intensité du phénomène ainsi provoqué est notée par un chiffre allant de 1 à 5 suivant la progression du syndrome inflammatoire. On détermine ainsi la moyenne de l'intensité oedémateuse et le pourcentage de diminution de la réaction oedémateuse par rapport au témoin, en fonction du temps.
Les pourcentages d'activité anti-inflammatoire obtenus à la 2ème heure et 3ème heure après l'injection d'ovalbumine sont consignés dans le Tableau III suivant.

[5] = 1 h after carrageenan, read-out: pourcentage d'activité anti-inflammatoire Ière heure
[6] = 2 h after carrageenan, read-out: pourcentage d'activité anti-inflammatoire 2ème heure
[7] = 3 h after carrageenan, read-out: pourcentage d'activité anti-inflammatoire 3ème heure
[8] = 5 h after carrageenan, read-out: pourcentage d'activité anti-inflammatoire 5ème heure
[9] = 2 h after ovalbumin injection, read-out: Pourcentage d'activité anti-inflammatoire 2ème heure
[10] = 3 h after ovalbumin injection, read-out: Pourcentage d'activité anti-inflammatoire 3ème heure

Structure (SMILES)	inhibition at 100 mg/kg [1]	inhibition at 100 mg/kg [2]	inhibition in vivo at 100 mg/kg [3, 5]	inhibition in vivo at 100 mg/kg [3, 6]	inhibition in vivo at 100 mg/kg [3, 7]	inhibition in vivo at 100 mg/kg [3, 8]	inhibition in vivo at 100 mg/kg [4, 9]	inhibition in vivo at 100 mg/kg [4, 10]
O=c1[nH]c(-c2ccccc2)cc2sccc12 [dérivé 1, Phényl-6 thiéno(3,2-c)pyridone-4]	62%	91.4%	35%	39%	45%	49%	45%	52%
O=c1[nH]c(-c2ccc(F)cc2)cc2sccc12 [dérivé 2, p-fluorophényl-6 thiéno(3,2-c)pyridone-4]	60.5%	91.7%	37%	41%	46%	50%	48%	54%
O=c1[nH]c(-c2ccccc2Cl)cc2sccc12 [dérivé 3, o-chlorophényl-6 thiéno(3,2-c)pyridone-4]	58.8%	92%	37%	40%	45%	48%	48%	55%
O=c1[nH]c(-c2ccc(Cl)cc2)cc2sccc12 [dérivé 4, p-chlorophényl-6 thiéno(3,2-c)pyridone-4]	61.2%	90.5%	41%	44%	48%	52%	47%	53%
Cc1ccc(-c2cc3sccc3c(=O)[nH]2)cc1 [dérivé 5, p-tolyl-6 thiéno(3,2-c)pyridone-4]	62.6%	91.4%	38%	41%	46%	51%	50%	55%
COc1ccc(-c2cc3sccc3c(=O)[nH]2)cc1 [dérivé 6, p-méthoxyphényl-6 thiéno(3,2-c)pyridone-4]	62.2%	91.7%	40%	43%	49%	52%	52%	58%
COc1ccc(-c2cc3sccc3c(=O)[nH]2)cc1OC [dérivé 7, (diméthoxy-3,4 phényl)-6 thiéno(3,2-c)pyrido-ne-4]	61.7%	90.6%	40%	44%	48%	51%	48%	55%
COc1cc(-c2cc3sccc3c(=O)[nH]2)cc(OC)c1OC [dérivé 8, (triméthoxy-3,4,5 phényl)-6 thiéno(3,2-c)py-ridone-4]	60.4%	92.2%	36%	39%	45%	59%	46%	53%
O=c1[nH]c(-c2ccccc2[N+](=O)[O-])cc2sccc12 [dérivé 9, o-nitrophényl-6 thiéno(3,2-c)pyridone-4]	59.1%	90.8%	38%	41%	46%	50%	46%	52%
O=c1[nH]c(-c2ccc([N+](=O)[O-])cc2)cc2sccc12 [dérivé 10, p-nitrophényl-6 thiéno(3,2-c)pyridone-4]	60.4%	90.2%	41%	45%	51%	53%	49%	55%
O=c1[nH]c(-c2cccc(C(F)(F)F)c2)cc2sccc12 [dérivé 11, m-trifluorométhylphényl-6 thiéno(3,2-c)pyri-done-4]	60.1%	90.7%	40%	44%	49%	52%	51%	57%
O=c1[nH]c(-c2ccccc2)cc2sc(Cl)cc12 [dérivé 12, Chloro-2 phényl-6 thiéno(3,2-c)pyridone-4]	60.6%	91.4%	36%	40%	46%	50%	45%	52%
Cc1cc2c(=O)[nH]c(-c3ccccc3)cc2s1 [dérivé 13, Méthyl-2 phényl-6 thiéno(3,2-c)pyridone-4]	61.5%	90.5%	38%	42%	47%	50%	46%	53%
O=c1[nH]c(-c2cccnc2)cc2sccc12 [dérivé 14, (Pyridyl-3)-6 thiéno(3,2-c)pyridone-4]	60.8%	91.2%	38%	41%	47%	50%	48%	54%
O=c1[nH]c(-c2ccccc2)cc2ccsc12 [dérivé 15, Phényl-5 thiéno(2,3-c)pyridone-7]	62.5%	90.8%	39%	43%	48%	51%	47%	53%
O=c1[nH]c(-c2ccccc2Cl)cc2ccsc12 [dérivé 16, o-chlorophényl-5 thiéno(2,3-c)pyridone-7]	60.1%	90.2%	37%	41%	47%	50%	46%	54%
O=c1[nH]c(-c2ccccc2)cc2occc12 [dérivé 17, Phényl-6 furo(3,2-c)pyridone-4]	59.8%	90.4%	41%	44%	49%	51%	45%	51%
